In patent US20040097598A1 (priority 2001, published 2004):
pIC50: −log10 of the molar value. Where two headings read alike, the source gives them in different places.

What was measured:
[1] = system: neurological deficit (rotorod); experiment: rotorod toxicity test; format: in vivo; conditions: dose giving rotorod failure in 50% subjects, about 25 min after intraperitoneal injection in oil, male CF-1 mice
Protocol: (§1) Male CF-1 mice, weighing 28-30 g, were used as subjects (Charles River Canada, La Prairie, Quebec, Canada). Three to five subjects per drug dose were used to prescreen each compound for anticonvulsant activity. Prescreening involved injecting subjects with the drug at doses of 3, 6 mmol/kg and assessing activity and toxicity 30 min later. Promising compounds progressed to dose-response studies, which employed at least 50 subjects, 10 subjects per dose.
(§2) Compounds were dissolved in oil and injected intraperitoneally.
The test was administered about 25 minutes after the injection. In brief, the diameter of a rotating rod was about 5 cm and the number of revolutions per minute was set at 6 rpm. Mice were placed on the rod so that it was rotated toward the animal. Animals that were not able to maintain their equilibrium on the rod for 1 min were again put on the rod a further two times.
Both dose-response and toxicity data were fitted using non-linear sigmoidal dose-response model with variable slope: Y=Bottom+(Top-Bottom)/(1+10^((LogED50—X)*HillSlope)), where Bottom, Top, HillSlope and ED50 were the fitting parameters, X was the logarithm of drug concentration, and Y was the response parameter. […] Therapeutic index (TI) was calculated as a ratio of TD50/ED50.

MES seizure = experiment: maximal electroshock (MES) seizure test; format: in vivo, mice; conditions: for LogED50 / anticonvulsant activity: MES test; for LogED50: best-fit value, C5 vs C7 comparison; for TI (therapeutic index): ratio TD50 (rotorod)/ED50 (MES); for TI (therapeutic index) / anticonvulsant activity: mice; for anticonvulsant activity: intraperitoneal
Protocol: as §1, §2
Thirty minutes after drug injection, the MES seizure test was administered. We used the procedure of Krall et al. (1978). In brief, a seizure was induced using the electrical current applied via corneal electrodes. The current was set to 50 mA with a 60 Hz sine wave pulse configuration and train duration of 0.2 sec. Seizure protection was defined in this model as a failure to extend the hind limbs to an angle greater than 90 degrees during the tonic period of the convulsion.
Data analysis was performed using GraphPad Prizm software package version 3.02 for Windows (GraphPad Software Inc, San Diego, Calif., USA). Both dose-response and toxicity data were fitted using non-linear sigmoidal dose-response model with variable slope: Y=Bottom+(Top-Bottom)/(1+10^((LogED50—X)*HillSlope)), where Bottom, Top, HillSlope and ED50 were the fitting parameters, X was the logarithm of drug concentration, and Y was the response parameter. ED50 and TD50, which are the concentrations that give a response in 50% subjects in seizure and toxicity tests, were determined as best-fit values. Therapeutic index (TI) was calculated as a ratio of TD50/ED50.

[2] = biological target: nicotinic acetylcholine receptors; conditions: inhibition of acetylcholine ion channel, Alifimoff et al. (1993); cited from earlier work
[3] = system: thujone model of epileptic seizures; conditions: cited from earlier work
[4] = system: electrically evoked seizure; conditions: exposed for 4 h to air containing acetone vapors; cited from earlier work
[5] = system: threshold pentylenetetrazole (PTZ) model; experiment: threshold pentylenetetrazole (PTZ) model, acetone (FIG. 3); format: in vivo
Source text: (§3) The amygdala-kindled focus is a model of complex partial seizures in humans (Albright & Burnham 1980). These are notoriously drug resistant.
(§4) The AY-9944-induced seizures were quantified by measurement of the onset-to-offset durations of the slow spike-and-wave discharge (SWD) combined over the 20-min intervals. In the AY-9944 model, average ‘% SWD decrease’ was the response parameter.
(§5) Compounds may be examined for their efficacy as anticonvulsants using a number of different animal models, including the maximal electroshock (MES) model (human analog: tonic-clonic seizures) as described in Krall et al. (1978) and in Example 1 herein, the threshold pentylenetetrazole (PTZ) model (human analog: absence seizures) as described in Krall et al. (1978), the amygdala-kindling model (human analog: complex partial seizures with secondary generalization) as described in Albright & Burnham (1980), and the AY-9944 model (human analog, a typical absence, a component of the Lennox-Gastaut syndrome) as described in Cortez et al. (2001). The compounds may also be tested for their toxicity using standard assays, such as the standard rotorod assay as described in Dunham & Miya (1957) and Wlaz & Loscher (1998) and in Example 1 herein.

[6] = system: maximal electroshock (MES) model; experiment: maximal electroshock (MES) model, acetone (FIG. 3); format: in vivo
Source text: as §3, §4, §5

[7] = system: amygdala-kindled seizures; experiment: amygdala-kindling model, acetone (FIG. 3)
Source text: as §3, §4, §5

[8] = system: convulsions induced by electroshock; conditions: pretreatment, rats; cited from earlier work
AY-9944-induced seizures = experiment: AY-9944 model, acetone (FIG. 3); format: in vivo
Source text: as §3, §4, §5

seizures = experiment: anticonvulsant action of the ketone bodies; conditions: in vivo
Source text: The present inventors have studied the mechanism of action of the ketogenic diet in a series of animal experiments.

[9] = system: convulsions induced by isonicotinic acid; conditions: pretreatment, rats; cited from earlier work
[10] = system: semicarbizide-induced convulsions; conditions: given orally to mice; cited from earlier work
[11] = system: maximal electroshock seizures; experiment: maximal electroshock seizures after intraperitoneal acetoacetate; format: in vivo; conditions: 15-30 min after intraperitoneal injection, mice or rats
Source text: (§6) Experiments of Keith and Helmholz involving the thujone model of epileptic seizures seemed to support Wilder's hypothesis (Helmholz & Keith 1930, Keith 1931, 1932a,b). […] The Keith's results and conclusions about anticonvulsant activity of acetoacetate are debatable. […] At the same time, acetoacetate easily decomposes to form acetone.

[12] = system: pentylenetetrazole seizures; experiment: pentylenetetrazole seizures after intraperitoneal acetoacetate; format: in vivo; conditions: 15-30 min after intraperitoneal injection, mice or rats
Source text: as §6

[13] = mouse, in vivo, ip, read-out: TD50
[14] = Mus musculus, ip, 0.5 h, dose giving seizure protection in 50% subjects, MES test 30 min after intraperitoneal injection in oil, male CF-1 mice, read-out: ED50
[15] = dose giving seizure protection in 50% subjects, MES test 30 min after intraperitoneal injection in oil, male CF-1 mice
[16] = given chronically for 28 days, rats

Compound	TD50 [1, 13] [µmol/kg]	ED50 (MES seizure; [14]) [µmol/kg]	TI (therapeutic index) (MES seizure)	also measured
CCC(=O)CC [3-Pentanone]	7600	3300	2.3	LogED50 (MES seizure): LogED50 = 0.5124
CCCCCCCCC [Nonane]	–	–	–	anticonvulsant activity (MES seizure): inactive as anticonvulsant
CCC(C)O (centres unmarked) [2-butanol]	–	–	–	pIC50 [2]: 1.15 to 1.22
CC(=O)CC(=O)[O-].[Na+] [sodium acetoacetate]	–	–	–	anticonvulsant effect [3]: most marked anticonvulsant effects
COCC(C)=O [Methoxyacetone]	–	–	–	anticonvulsant activity (MES seizure): absence of anticonvulsant activity
2-Butanone	–	–	1.7	TD50 [1]: 10000 µmol/kg; ED50 (MES seizure; [15]): 5800 µmol/kg
CCCCCCC(=O)CC [3-Nonanone]	20900	9600	2.2	–
CCCCC(C)=O [2-Hexanone]	4400	–	1.8	ED50 (MES seizure; Mus musculus, ip, 0.5 h): 2400 µmol/kg
Acetone	–	–	–	rats in which electrically evoked seizure is inhibited [4]: 50%; seizure suppression [5]: suppresses seizures; seizure suppression [6]: suppresses seizures; TD50 [1]: 35200 µmol/kg; seizure suppression ([7]; amygdala-kindling model): suppresses seizures; development of kindled seizures [7, 16]: significantly delayed; tolerability [7, 16]: well tolerated; effect against the kindled amygdala focus ([7]; sub-toxic doses): effective; ED50 (MES seizure; [15]): 16200 µmol/kg; ED50 (MES seizure; dose giving seizure protection in 50% subjects, MES test 30 min after intraperitoneal injection in oil, male CF-1 mice, listed as acetone): 16000 µmol/kg; protection against clonic-tonic convulsions [8]: protected; seizure suppression (AY-9944-induced seizures): suppresses seizures; anticonvulsant (seizures): anticonvulsant; protection against clonic-tonic convulsions [9]: protected; semicarbizide-induced convulsions and mortality [10]: reduce
CCCCCCCCCC(C)=O [2-Undecanone]	–	–	Not Active	TD50 [1]: Not Active; ED50 (MES seizure; [15]): Not Active
CCCCCC(=O)CCC [4-Nonanone]	16300	5000	3.3	–
CCCCCCCCC(C)=O [2-Decanone]	–	–	Not Active	TD50 [1]: Not Actuve; ED50 (MES seizure; [15]): Not Active
CC(=O)CC(C)(C)O [Diacetone]	–	–	–	anticonvulsant activity (MES seizure; listed as diacetone alcohol): absence of anticonvulsant activity
CCCCCCCCC=O [Nonanal]	–	–	–	anticonvulsant activity (MES seizure): inactive as anticonvulsants
CC(O)CCCO (centres unmarked) [1,4-Pentanediol]	–	–	–	anticonvulsant activity (MES seizure): absence of anticonvulsant activity
CCCCCCCC(C)O (centres unmarked) [2-Nonanol]	5000	1200	4.3	–
CC(=O)CC(=O)O [acetoacetic acid]	–	–	–	anticonvulsant effect [3]: most marked anticonvulsant effects

Compound	TD50 [1, 13] [µmol/kg]	ED50 (MES seizure; [14]) [µmol/kg]	TI (therapeutic index) (MES seizure)	also measured
CCCC(C)O (centres unmarked) [2-Pentanol]	5700	1600	3.7	LogED50 (MES seizure): LogED50 = 0.2331
CCCC(C)=O [2-Pentanone]	7200	–	2.2	LogED50 (MES seizure): LogED50 = 0.5176; ED50 (MES seizure; Mus musculus, ip, 0.5 h): 3300 µmol/kg
CCCCCC(=O)CCCCC [6-Undecanone]	–	–	Not Active	TD50 [1]: Not Active; ED50 (MES seizure; [15]): Not Active
CCCCCC(C)=O [2-Heptanone]	6000	2800	2.2	LogED50 (MES seizure): LogED50 = 0.4447
CCCCC(=O)CCCC [5-Nonanone]	13200	3600	3.6	–
CCCC(=O)CCC [4-Heptanone]	4700	2000	2.4	LogED50 (MES seizure): LogED50 = 0.2981
CCCCCC=O [Hexanal]	–	–	–	anticonvulsant activity (MES seizure): inactive as anticonvulsants
CCCCCCCCC(C)O (centres unmarked) [2-Decanol]	–	–	Not Active	TD50 [1]: Not Active; ED50 (MES seizure; [15]): Not Active
CCCCCC(C)O (centres unmarked) [2-Heptanol]	5100	1300	3.9	LogED50 (MES seizure): LogED50 = 0.1197
CCCCCCCC(C)=O [2-Nonanone]	15900	1700	9.4	–
CCCCOC(C)=O [Butyl acetate]	–	–	–	anticonvulsant activity (MES seizure): Series V - Inactive analogues
CC(O)CC(=O)O (stereo not drawn) [Beta-hydroxybutyrate, beta-hydroxybutyrate]	–	–	–	anticonvulsant effect [3]: not anticonvulsant
CC(=O)CC(=O)O [Acetoacetate]	–	–	–	effect against maximal electroshock seizures [11]: not effective; effect against pentylenetetrazole seizures [12]: not effective
CCCC(CCC)C(=O)O [valproate]	3800	1400	2.7	–
CCCCCCC(C)=O [2-Octanone]	6000	3400	1.8	–
CCOC(=O)CC(C)=O [Ethyl acetoacetate]	–	–	–	anticonvulsant activity (MES seizure): absence of anticonvulsant activity
CCCCCCC(C)O (centres unmarked) [2-Octanol]	3900	2000	1.9	–
